The values that follow come from patent publication US6074859A, “Mutant-type bioluminescent protein, and process for producing the mutant-type bioluminescent protein” (Kikkoman Corporation, priority 1998, dated 2000).

The target in data set [1] is Photinus pyralis luciferase (Photinus pyralis, UniProt P08659). Kind of data set: Km for substrate ATP, peak light emission (Tricine pH 7.8). Particulars: read-out: Km (affinity for ATP); ATP 0 to 2 mM, 50 mM Tricine buffer (pH 7.8), 0.2 mM luciferin, 10 mM MgSO4. The format is biochemical. As for the experimental part: (§1) Further, its crude enzyme solution was prepared using the method described in Example 1 and the enzyme was purified in a method described in Japanese Patent Application Laid-Open Publication No. 141592/89. The purified enzyme was designated HHA1 luciferase.

The target in data set [2] is Photinus pyralis luciferase, wild type (Photinus pyralis, UniProt P08659). The experiment in a line: Km for substrate ATP, peak light emission (HEPES pH 7.5). In kind it is biochemical. Particulars: read-out: Km for the substrate ATP; ATP 0 to 2 mM, 50 mM HEPES (pH 7.5), 0.2 mM luciferin, 10 mM MgSO4.
Data set [3] has as its target T1, Luciola cruciata luciferase, wild type (Nipponoluciola cruciata, UniProt P13129).
T1 sequence (P13129 1-548): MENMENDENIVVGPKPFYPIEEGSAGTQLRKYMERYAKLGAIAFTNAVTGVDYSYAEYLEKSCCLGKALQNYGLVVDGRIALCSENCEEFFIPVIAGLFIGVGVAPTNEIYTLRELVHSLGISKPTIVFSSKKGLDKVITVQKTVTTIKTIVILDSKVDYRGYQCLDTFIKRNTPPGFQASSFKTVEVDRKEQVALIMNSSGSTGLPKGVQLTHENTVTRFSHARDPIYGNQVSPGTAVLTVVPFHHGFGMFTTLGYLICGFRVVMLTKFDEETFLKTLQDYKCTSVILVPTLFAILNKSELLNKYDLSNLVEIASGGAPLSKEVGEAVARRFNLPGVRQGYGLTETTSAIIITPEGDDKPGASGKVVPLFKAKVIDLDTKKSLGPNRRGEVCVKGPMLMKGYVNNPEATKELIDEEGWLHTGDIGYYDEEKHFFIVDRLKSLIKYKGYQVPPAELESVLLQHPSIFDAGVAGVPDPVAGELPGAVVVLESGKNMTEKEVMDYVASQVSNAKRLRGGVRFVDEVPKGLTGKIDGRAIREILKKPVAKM
Described as above. The conditions noted are these: read-out: Km for the substrate ATP; ATP 0 to 2 mM, 50 mM HEPES (pH 7.5), 0.2 mM luciferin, 10 mM MgSO4. The format is biochemical.

Data set [4] concerns GA1 luciferase (fusion of Luciola cruciata luciferase N-terminal portion and Photinus pyralis luciferase C-terminal portion, SEQ ID NO:5). The description is as above. The format is biochemical. Particulars: read-out: Km for the substrate ATP; ATP 0 to 2 mM, 50 mM HEPES (pH 7.5), 0.2 mM luciferin, 10 mM MgSO4.
Data set [5] concerns GGA1 luciferase variant GGA1 T219I (219-position Thr to Ile). The experiment in a line: Catalytic efficiency (Vmax/Km) toward ATP, integrated light emission. In kind it is biochemical, Luciola cruciata / Photinus pyralis. The conditions noted are these: ATP 0 to 1.0×10^-3 mM, 50 mM Tricine buffer (pH 7.8), 2.0 mM luciferin, 10 mM MgSO4; light integrated 5 to 15 seconds. As for the experimental part: (§2) The resulting transformant was inoculated on an LB-amp plate [1.0% (W/V) Bacto-trypton, 0.5% (W/V) yeast extract, 0.5% (W/V) NaCl, 1.5% (W/V) agar and 50 μ g/ml ampicillin] and cultured at 37° C. for 12 hours. The resulting colonies were transferred onto a nitrocellulose filter, and said filter was immersed in 0.1 M sodium citrate buffer (pH 5.0) containing 0.5 mM luciferin [Wood & DeLuca, Anal. Biochem., 161, 501-507 (1987)]. The emission of light from said colonies was monitored, and 3 strains with raised emission could be obtained. These strains were designated E. coli JM 109 (pGGA2-1), E. coli JM 109 (pGGA1-4) and E. coli JM 109 (pGGA2-4), respectively. The E. coli JM 109 (pGGA2-1), E. coli JM 109 (pGGA1-4) and E. coli JM 109 (pGGA2-4) thus obtained have been deposited respectively as FERM BP-6206, FERM BP-6205 and FERM BP-6204 with the National Institute of Bioscience and Human-Technology, Agency of Industrial Science and Technology. Plasmids were removed from these strains by alkali-SDS method. These plasmids were subjected to reaction with a dye primer tuck sequencing kit (Applied Biosystems) and analyzed by electrophoresis with an ABI 373A DNA sequencer (Applied Biosystems) to determine their mutation sites (Table 4).
(§3) From the E. coli JM 109 (pGGA2-1), E. coli JM 109 (pGGA1-4), E. coli JM 109 (pGGA2-4), their crude enzyme solutions were extracted by the method described in Example 1, and these mutant enzymes were purified in the method described in Japanese Patent Laid-Open Publication No. 141592/1989.The purified enzymes were designated GGA1 T219I luciferase, GGA1 V290I luciferase and GGA1 V239I luciferase, respectively. […] The emission of light from 5 seconds to 15 seconds after initiation of the reaction was integrated in Luminometer ML3000 (Dynatech) to determine catalytic efficiency (Vmax/Km). As shown in the table below, it was confirmed that as compared with the GGA1 luciferase, catalytic efficiency was improved by mutating each of the amino acids at the 219-, 290-, and 239-positions.

The subject of data set [6] is GGA1 luciferase variant GGA1 V239I (239-position Val to Ile). Described as above. In kind it is biochemical, Luciola cruciata / Photinus pyralis. The conditions noted are these: ATP 0 to 1.0×10^-3 mM, 50 mM Tricine buffer (pH 7.8), 2.0 mM luciferin, 10 mM MgSO4; light integrated 5 to 15 seconds. On the procedure: as §2, §3
Data set [7] has as its system GGA1 luciferase variant GGA1 V290I (290-position Val to Ile). Described as above. The format is biochemical, Luciola cruciata / Photinus pyralis. Particulars: ATP 0 to 1.0×10^-3 mM, 50 mM Tricine buffer (pH 7.8), 2.0 mM luciferin, 10 mM MgSO4; light integrated 5 to 15 seconds. As for the experimental part: as §2, §3
The test system of data set [8] is HHA1 luciferase (fusion of Luciola lateralis luciferase N-terminal, from pHLf7-217Leu, and Photinus pyralis luciferase C-terminal, SEQ ID NO:10). Kind of data set: Km for substrate ATP, peak light emission (Tricine pH 7.8). The format is biochemical. Particulars: read-out: Km (affinity for ATP); ATP 0 to 2 mM, 50 mM Tricine buffer (pH 7.8), 0.2 mM luciferin, 10 mM MgSO4. On the procedure: 50 ng of the above EcoRV--EcoRV fragment from pT3/T7-LUC and 50 ng of the above EcoRV-NaeI fragment from pHLf7-217Leu were incubated at 15° C. for 16 hours in 20 μ l DNA ligase buffer in the presence of 300 U of T4 DNA ligase. The reaction mixture was used to transform E. coli JM 109 by the Hana-han method [DNA Cloning, 1, 109-135 (1985)], and ampicillin-resistant colonies were selected. A crude enzyme was prepared from the selected colonies in the method described in Example 1, and a plasmid was removed by the alkali-SDS method from those having luminescence activity, and the structure of the plasmid was confirmed. This plasmid was subjected to reaction with a dye primer tuck sequencing kit (Applied Biosystems) and analyzed by electrophoresis with an ABI 373A DNA sequencer (Applied Biosystems) to determine its nucleotide sequence (SEQ ID NO:9). The amino acid sequence of a polypeptide estimated to be translated from said nucleotide sequence is shown in SEQ ID NO:10. The plasmid thus obtained was designated pHHA1.
as §1

Data set [9] concerns GGA1 luciferase (fusion of thermostable Luciola cruciata luciferase N-terminal, Thr217Ile, and Photinus pyralis luciferase C-terminal, SEQ ID NO:7). The format is biochemical. Particulars: read-out: Km for the substrate ATP; purified GGA1 enzyme, Table 2.
Substrate in data set [10]: Nc1ncnc2c1ncn2[C@@H]1O[C@H](COP(=O)(O)OP(=O)(O)OP(=O)(O)O)[C@@H](O)[C@H]1O
Kind of data set: cells, lysate or membranes named. The conditions noted are these: other: ATP 0 to 2 mM, 50 mM Tricine buffer (pH 7.8), 0.2 mM luciferin, 10 mM MgSO4. In kind it is biochemical, Luciola lateralis. On the procedure: as §1

Chain of Photinus pyralis luciferase, wild type (P08659 whole entry): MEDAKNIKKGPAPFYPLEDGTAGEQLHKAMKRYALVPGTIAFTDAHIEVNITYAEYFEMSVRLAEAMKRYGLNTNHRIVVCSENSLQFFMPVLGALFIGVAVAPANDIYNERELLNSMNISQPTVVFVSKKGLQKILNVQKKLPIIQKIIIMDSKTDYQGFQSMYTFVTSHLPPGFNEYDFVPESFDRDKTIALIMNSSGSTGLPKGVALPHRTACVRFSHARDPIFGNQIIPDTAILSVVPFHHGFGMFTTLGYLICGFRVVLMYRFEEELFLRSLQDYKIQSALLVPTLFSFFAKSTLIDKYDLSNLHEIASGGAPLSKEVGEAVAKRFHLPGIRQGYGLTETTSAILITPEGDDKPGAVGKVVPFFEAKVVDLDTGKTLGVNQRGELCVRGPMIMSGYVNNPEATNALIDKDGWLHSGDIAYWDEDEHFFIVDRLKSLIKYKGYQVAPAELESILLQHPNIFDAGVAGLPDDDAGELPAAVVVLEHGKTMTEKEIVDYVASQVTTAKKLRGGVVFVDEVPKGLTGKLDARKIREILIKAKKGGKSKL
Chain of Photinus pyralis luciferase (P08659 whole entry): as above

A word on the Km: it is the concentration of substrate that gives half-maximal velocity. `Nc1ncnc2c1ncn2[C@@H]1O[C@H](COP(=O)(O)OP(=O)(O)OP(=O)(O)O)[C@@H](O)[C@H]1O` [ATP]: the Km was found to be 161 µM in [1]; 152 µM in [2]; 301 µM in data set [3]; 26.5 µM in data set [4]; 123 µM in data set [8]; 104 µM in data set [9]. In addition, the “Vmax/Km toward the substrate ATP” value in data set [5] is on record as 2.16 × 10^9 RLU/mg; in [6] it was 1.58 × 10^9 RLU/mg; in [7] it was 1.70 × 10^9 RLU/mg.

B1: Luciola lateralis luciferase (Aquatica lateralis) (protein)
chain: MENMENDENIVYGPEPFYPIEEGSAGAQLRKYMDRYAKLGAIAFTNALTGVDYTYAEYLEKSCCLGEALKNYGLVVDGRIALCSENCEEFFIPVLAGLFIGVGVAPTNEIYTLRELVHSLGISKPTIVFSSKKGLDKVITVQKTVTAIKTIVILDSKVDYRGYQSMDNFIKKNTPQGFKGSSFKTVEVNRKEQVALIMNSSGSTGLPKGVQLTHENAVTRFSHARDPIYGNQVSPGTAILTVVPFHHGFGMFTTLGYLTCGFRIVMLTKFDEETFLKTLQDYKCSSVILVPTLFAILNRSELLDKYDLSNLVEIASGGAPLSKEIGEAVARRFNLPGVRQGYGLTETTSAIIITPEGDDKPGASGKVVPLFKAKVIDLDTKKTLGPNRRGEVCVKGPMLMKGYVDNPEATREIIDEEGWLHTGDIGYYDEEKHFFIVDRLKSLIKYKGYQVPPAELESVLLQHPNIFDAGVAGVPDPIAGELPGAVVVLEKGKSMTEKEVMDYVASQVSNAKRLRGGVRFVDEVPKGLTGKIDGKAIREILKKPVAKM
Regarding B1, the Km in data set [10] stood at 197 µM.
